SMILES strings stand for the structures. Like-named read-outs stand apart in the source and are kept apart here.

Holding throughout (type): in vitro ADME
Series [1] is described as follows: Metabolic stability in pooled human liver microsomes. Particulars: pooled human liver microsomes 0.5 mg/mL, 1 μM compound, 37° C. On the procedure:
Pooled human liver microsomes in PBS at a concentration of 0.5 mg/mL was incubated with or without 1 mM NADPH for 70 min at 37° C. Test compound was added after 10 minutes to a final concentration of 1 μM. Samples were withdrawn at 0, 5, 15 and 60 minutes and added to test tubes containing acetonitrile, to stop the reaction, and with terfenadine, used as internal standard. After centrifugation at 10 000×g for 5 minutes the supernatant was diluted 1:1 with 1% formic acid. Samples were separated on a reverse phase column and detected by triple quadrupole MSMS (Agilant model 6540). The concentration of the parent compound at the different time points was measured with an external standard curve using terfenadine as internal standard and the initial metabolic rate in the presence or absence of NADPH calculated.

In series [2] the target is T1, CYP3A4 (Homo sapiens, UniProt P08684). The series can be described thus: CYP inhibition found during development of C21.
In series [3] the target is T2, CYP2C9 (Homo sapiens, UniProt P11712). The series can be described thus: CYP inhibition found during development of C21.
Series [4] is described as follows: Metabolic hydrolysis found during development of C21.
Series [5] has as its system CYP3A4&5. The series can be described thus: CYP inhibition in human liver microsomes (testosterone). Particulars: probe testosterone, substrate testosterone, read-out: CYP3A4&5 testosterone Inh %. On the procedure: (§1) The following substrates were used; CYP1 Å phenacetin, […] bupropion, CYP2C8 paclitaxel and amodiaquine, CYP2C9 diclofenac, CYP2C19 omeprazole, CYP2D6 dextromethorphan, CYP3 Å midazolam and testosterone.
(§2) At the end of the incubation, the formation of metabolite was monitored by HPLC-MS/MS as the peak area response.

The target of series [6] is T2, CYP2C9. The series can be described thus: CYP inhibition in human liver microsomes. The arrangement: using isoform-specific substrates incubated with human liver microsomes; tissue Eurofins protocol ITEMG232; host or cells: human liver microsomes. Particulars: probe diclofenac, substrate diclofenac, read-out: CYP2C9 Inh %. On the procedure: as §1, §2
Series [7] concerns the target T3, CYP1A2 (Homo sapiens, UniProt P05177).
T3 construct: using isoform-specific substrates incubated with human liver microsomes; tissue Eurofins protocol ITEMG232; host or cells: human liver microsomes
The series can be described thus: in vitro. To be noted: human liver microsomes, substrate phenacetin, read-out: CYP1A2 Inh %. The method, then: as §1, §2

Series [8] has as its target T4, CYP2D6 (Homo sapiens, UniProt P10635).
T4 construct: tissue Eurofins protocol ITEMG232; host or cells: human liver microsomes
The series can be described thus: CYP inhibition in human liver microsomes. To be noted: probe dextromethorphan, substrate dextromethorphan, read-out: CYP2D6 Inh %. The method, then:
as §1, §2

Series [9] has as its target T5, CYP2C19 (Homo sapiens, UniProt P33261).
T5 construct: using isoform-specific substrates incubated with human liver microsomes; tissue Eurofins protocol ITEMG232; host or cells: human liver microsomes
The series can be described thus: CYP inhibition in human liver microsomes. Particulars: probe omeprazole, substrate omeprazole, read-out: CYP2C19 Inh %. The method, then: as §1, §2

Series [10] deals with T6, CYP2B6 (Homo sapiens, UniProt P20813).
T6 construct: using isoform-specific substrates incubated with human liver microsomes; tissue Eurofins protocol ITEMG232; host or cells: human liver microsomes
T6 sequence (P20813 1-491): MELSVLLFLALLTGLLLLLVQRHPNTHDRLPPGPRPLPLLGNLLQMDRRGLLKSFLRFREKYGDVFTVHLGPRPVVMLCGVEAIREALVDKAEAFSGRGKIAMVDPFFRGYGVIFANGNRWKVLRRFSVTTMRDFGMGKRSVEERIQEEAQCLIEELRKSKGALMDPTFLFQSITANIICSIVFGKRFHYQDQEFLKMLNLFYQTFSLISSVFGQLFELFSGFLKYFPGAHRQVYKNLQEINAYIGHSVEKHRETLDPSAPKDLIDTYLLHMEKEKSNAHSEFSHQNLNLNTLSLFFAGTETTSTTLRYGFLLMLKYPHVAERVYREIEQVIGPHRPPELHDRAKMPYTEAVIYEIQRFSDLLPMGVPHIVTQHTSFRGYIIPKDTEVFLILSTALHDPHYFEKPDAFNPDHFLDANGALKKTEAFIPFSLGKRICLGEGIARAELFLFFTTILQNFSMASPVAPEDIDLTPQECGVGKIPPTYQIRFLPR
The series can be described thus: CYP inhibition in human liver microsomes. To be noted: probe bupropion, substrate bupropion, read-out: CYP2B6 Inh %. On the procedure: as §1, §2

Series [11] has as its target T7, CYP2C8 (Homo sapiens, UniProt P10632).
T7 construct: using isoform-specific substrates incubated with human liver microsomes; tissue Eurofins protocol ITEMG232; host or cells: human liver microsomes
T7 sequence (P10632 1-490): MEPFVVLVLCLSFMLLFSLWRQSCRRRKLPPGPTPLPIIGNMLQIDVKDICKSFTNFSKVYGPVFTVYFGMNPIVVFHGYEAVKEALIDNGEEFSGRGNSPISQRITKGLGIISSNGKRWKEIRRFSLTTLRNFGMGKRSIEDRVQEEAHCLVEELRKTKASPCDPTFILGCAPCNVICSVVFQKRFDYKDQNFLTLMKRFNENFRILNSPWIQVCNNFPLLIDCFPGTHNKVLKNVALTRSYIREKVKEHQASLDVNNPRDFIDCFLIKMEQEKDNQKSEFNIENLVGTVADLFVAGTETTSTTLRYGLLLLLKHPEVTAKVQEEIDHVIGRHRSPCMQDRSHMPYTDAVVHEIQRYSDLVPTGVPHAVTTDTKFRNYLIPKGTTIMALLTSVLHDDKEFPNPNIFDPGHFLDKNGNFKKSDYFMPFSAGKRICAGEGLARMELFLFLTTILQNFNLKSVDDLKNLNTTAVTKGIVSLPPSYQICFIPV
The series can be described thus: CYP inhibition in human liver microsomes. Particulars: probe paclitaxel and amodiaquine, substrates paclitaxel and amodiaquine, read-out: CYP2C8 Inh %. On the procedure: as §1, §2

Series [12] deals with T1, CYP3A4. The series can be described thus: CYP inhibition in human liver microsomes (midazolam). The arrangement: using isoform-specific substrates incubated with human liver microsomes; tissue Eurofins protocol ITEMG232; host or cells: human liver microsomes. Particulars: probe midazolam, substrate midazolam, read-out: CYP3A4 midazolam Inh %. The method, then:
as §1, §2

Setting [13] is: with 1 mM NADPH, read-out: T1/2, + NaDPH.
Where [14] appears, read: without NADPH, read-out: T1/2, no NaDPH.

T2 sequence (P11712 whole entry): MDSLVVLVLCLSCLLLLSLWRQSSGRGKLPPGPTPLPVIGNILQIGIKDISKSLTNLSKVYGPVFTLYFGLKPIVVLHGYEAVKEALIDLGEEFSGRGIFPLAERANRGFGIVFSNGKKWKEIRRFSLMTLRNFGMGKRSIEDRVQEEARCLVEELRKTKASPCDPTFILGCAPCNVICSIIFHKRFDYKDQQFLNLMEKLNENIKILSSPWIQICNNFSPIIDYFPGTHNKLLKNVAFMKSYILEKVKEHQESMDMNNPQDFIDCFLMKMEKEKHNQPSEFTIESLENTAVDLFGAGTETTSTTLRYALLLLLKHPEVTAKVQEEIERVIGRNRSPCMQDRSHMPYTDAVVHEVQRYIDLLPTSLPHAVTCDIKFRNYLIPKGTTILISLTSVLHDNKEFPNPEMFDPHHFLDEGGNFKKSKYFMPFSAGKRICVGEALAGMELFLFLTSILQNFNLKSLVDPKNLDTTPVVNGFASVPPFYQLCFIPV
T1 sequence (P08684 whole entry): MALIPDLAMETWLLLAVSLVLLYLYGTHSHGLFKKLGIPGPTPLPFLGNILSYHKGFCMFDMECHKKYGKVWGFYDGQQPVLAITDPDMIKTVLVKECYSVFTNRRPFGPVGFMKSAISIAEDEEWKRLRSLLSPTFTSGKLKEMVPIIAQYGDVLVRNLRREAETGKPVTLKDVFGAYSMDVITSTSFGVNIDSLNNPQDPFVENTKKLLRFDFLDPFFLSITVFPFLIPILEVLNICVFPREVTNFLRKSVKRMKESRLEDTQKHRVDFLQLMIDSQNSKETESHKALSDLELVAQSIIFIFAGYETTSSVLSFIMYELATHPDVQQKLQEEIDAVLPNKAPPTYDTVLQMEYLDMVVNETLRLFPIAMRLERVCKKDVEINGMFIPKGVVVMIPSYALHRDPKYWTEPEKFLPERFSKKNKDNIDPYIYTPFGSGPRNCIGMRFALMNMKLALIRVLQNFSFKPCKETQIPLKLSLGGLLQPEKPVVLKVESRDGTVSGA
T5 sequence (P33261 whole entry, canonical isoform): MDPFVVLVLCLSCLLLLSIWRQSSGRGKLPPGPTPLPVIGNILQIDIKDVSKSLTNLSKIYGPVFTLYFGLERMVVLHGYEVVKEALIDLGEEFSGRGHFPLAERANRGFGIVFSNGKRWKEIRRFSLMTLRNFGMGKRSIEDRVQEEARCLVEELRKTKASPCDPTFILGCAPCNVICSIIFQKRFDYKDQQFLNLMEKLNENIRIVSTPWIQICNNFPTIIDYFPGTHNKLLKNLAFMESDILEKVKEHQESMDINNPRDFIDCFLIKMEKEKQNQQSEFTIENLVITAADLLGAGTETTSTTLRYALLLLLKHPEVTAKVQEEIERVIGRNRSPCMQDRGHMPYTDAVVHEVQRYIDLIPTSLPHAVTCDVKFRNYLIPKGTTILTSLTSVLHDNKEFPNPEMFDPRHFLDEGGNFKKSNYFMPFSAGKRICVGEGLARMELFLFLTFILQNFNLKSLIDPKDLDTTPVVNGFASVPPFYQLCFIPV
T3 sequence (P05177 whole entry, canonical isoform): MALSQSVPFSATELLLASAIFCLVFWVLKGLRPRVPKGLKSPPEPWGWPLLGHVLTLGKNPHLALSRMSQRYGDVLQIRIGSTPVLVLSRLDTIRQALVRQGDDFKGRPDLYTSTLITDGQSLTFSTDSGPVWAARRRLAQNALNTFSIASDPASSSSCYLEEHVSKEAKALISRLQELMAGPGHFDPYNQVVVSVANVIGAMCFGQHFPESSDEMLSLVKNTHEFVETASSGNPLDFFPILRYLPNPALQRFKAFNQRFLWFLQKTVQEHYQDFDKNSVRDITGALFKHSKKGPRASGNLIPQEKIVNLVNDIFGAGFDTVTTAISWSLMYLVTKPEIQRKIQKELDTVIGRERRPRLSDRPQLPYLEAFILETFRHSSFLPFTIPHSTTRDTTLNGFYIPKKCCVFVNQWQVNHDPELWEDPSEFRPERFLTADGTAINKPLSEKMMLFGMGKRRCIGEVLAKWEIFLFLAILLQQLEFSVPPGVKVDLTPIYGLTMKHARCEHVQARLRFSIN
T4 sequence (P10635 whole entry): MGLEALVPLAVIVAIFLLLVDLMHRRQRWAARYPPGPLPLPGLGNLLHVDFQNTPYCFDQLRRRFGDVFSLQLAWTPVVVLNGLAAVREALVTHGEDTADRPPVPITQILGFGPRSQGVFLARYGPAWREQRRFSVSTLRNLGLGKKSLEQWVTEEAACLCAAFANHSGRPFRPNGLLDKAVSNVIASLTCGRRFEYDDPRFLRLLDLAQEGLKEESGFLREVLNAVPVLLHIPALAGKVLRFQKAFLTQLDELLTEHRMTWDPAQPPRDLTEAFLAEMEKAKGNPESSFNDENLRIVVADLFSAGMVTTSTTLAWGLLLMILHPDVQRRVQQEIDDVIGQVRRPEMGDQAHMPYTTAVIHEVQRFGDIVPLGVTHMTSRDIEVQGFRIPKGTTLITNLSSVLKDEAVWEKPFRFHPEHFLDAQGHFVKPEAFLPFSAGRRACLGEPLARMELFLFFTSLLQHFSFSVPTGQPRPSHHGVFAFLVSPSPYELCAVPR

Take `Cc1nccn1Cc1ccc(-c2cc(CC(C)C)sc2S(=O)(=O)Nc2ccccn2)cc1Cl` [Example 2, 3-[3-Chloro-4-[(2-methylimidazol-1-yl)methyl]phenyl]-5-isobutyl-N-(2-pyridyl)thiophene-2-sulfonamide]: the values for the half-life at 1 μM in [1] (setting [13]) and in [1] (setting [14]) were 1 h and > 1 h, respectively.

Regarding `Cc1cc(-c2cc(CC(C)C)sc2S(=O)(=O)Nc2ccccn2)ccc1Cn1ccnc1C` [Example 3, 5-Isobutyl-3-[3-methyl-4-[(2-methylimidazol-1-yl)methyl]phenyl]-N-(2-pyridyl)thiophene-2-sulfonamide], the half-life at 1 μM is 0.883 h in series [1] (setting [13]) and > 1 h in series [1] (setting [14]).

As to `CCCCOC(=O)NS(=O)(=O)c1sc(CC(C)C)cc1-c1ccc(Cn2ccnc2)cc1` [Example C21, N-butyloxycarbonyl-3-(4-imidazol-1-ylmethylphenyl)-5-isobutylthiophene-2-sulfon-amide], the “inhibition of CYP 3A4 (in words)” value in [2] is “potent inhibitor”. Besides, in [3], the “inhibition of CYP 2C9 (in words)” value was “potent inhibitor”. Moreover, in series [4], the “metabolic hydrolysis (in words)” value was “rapidly hydrolysed to an inactive sulfonamide metabolite”. Besides, the inhibition at 10 µM in series [5] amounted to 94%.

In the case of `Cc1nccn1Cc1ccc(-c2cc(CC(C)C)sc2S(=O)(=O)Nc2ncccn2)cc1Cl` [Example 1, 3-[3-Chloro-4-[(2-methylimidazol-1-yl)methyl]phenyl]-5-isobutyl-N-pyrimidin-2-yl-thiophene-2-sulfonamide], the inhibition at 10 µM in [6] amounted to 49.4%; in series [7], 12.3%; in [8] it was 28.3%; in series [9], 72.7%; in series [10], 22.4%; in series [11], 33.9%. Further, the inhibition at 10 µM in series [12] and in series [5] was 40.1% each time. Besides, the half-life at 1 μM in series [1] (setting [13]) and in series [1] (setting [14]) was > 1 h in each case.

The values above are taken from patent publication US20260209213A1, “SELECTIVE ANGIOTENSIN II COMPOUNDS” (VICORE PHARMA AB, priority 2023, published 2026).
